Data published in paper PMC6704710, “Preclinical evaluation of 3D185, a novel potent inhibitor of FGFR1/2/3 and CSF-1R, in FGFR-dependent and macrophage-dominant cancer models” (Journal of Experimental & Clinical Cancer Research : CR, 2019).

Assays:
ALK(h) = target: T1, ALK(h) (Homo sapiens, UniProt Q9UM73); assay: Eurofins kinase panel; format: biochemical; settings: read-out: Inhibition rate (%)
T1 construct: purchased Eurofins (KinaseProfiler)

MSK2(h) = target: T2, MSK2(h) (Homo sapiens, UniProt O75676); assay: Eurofins kinase panel; format: biochemical; settings: read-out: Inhibition rate (%)
T2 construct: purchased Eurofins (KinaseProfiler)

MSSK1(h) = target: T3, MSSK1(h) (Homo sapiens, UniProt Q9UPE1); assay: Eurofins kinase panel; format: biochemical; settings: read-out: Inhibition rate (%)
T3 construct: purchased Eurofins (KinaseProfiler)

Met(Y1248D)(h) = target: T4, Met(Y1248D)(h) (Homo sapiens, UniProt P08581, Y1230D); assay: Eurofins kinase panel; format: biochemical; settings: read-out: Inhibition rate (%)
T4 construct: purchased Eurofins (KinaseProfiler)

TSSK3(h) = target: T5, TSSK3(h) (Homo sapiens, UniProt Q96PN8); assay: Eurofins kinase panel; format: biochemical; settings: read-out: Inhibition rate (%)
T5 construct: purchased Eurofins (KinaseProfiler)
T5 sequence (Q96PN8 1-268): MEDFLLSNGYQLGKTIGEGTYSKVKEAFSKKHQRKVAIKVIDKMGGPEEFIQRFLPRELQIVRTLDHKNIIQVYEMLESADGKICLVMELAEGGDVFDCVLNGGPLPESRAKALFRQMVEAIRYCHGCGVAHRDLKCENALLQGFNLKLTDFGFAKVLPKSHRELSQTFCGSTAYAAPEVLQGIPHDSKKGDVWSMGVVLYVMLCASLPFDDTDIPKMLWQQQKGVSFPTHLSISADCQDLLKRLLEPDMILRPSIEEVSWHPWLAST

TTBK1(h) = target: T6, TTBK1(h) (Homo sapiens, UniProt Q5TCY1); assay: Eurofins kinase panel; format: biochemical; settings: read-out: Inhibition rate (%)
T6 construct: purchased Eurofins (KinaseProfiler)

FGFR1(V561M)(h) = FGFR1(V561M)(h) (Homo sapiens, UniProt P11362, V561M); assay: Eurofins kinase panel; format: biochemical
IKKε(h) = target: T7, IKKε(h) (Homo sapiens, UniProt Q14164); assay: Eurofins kinase panel; format: biochemical; settings: read-out: Inhibition rate (%)
T7 construct: purchased Eurofins (KinaseProfiler)
T7 sequence (Q14164 1-716): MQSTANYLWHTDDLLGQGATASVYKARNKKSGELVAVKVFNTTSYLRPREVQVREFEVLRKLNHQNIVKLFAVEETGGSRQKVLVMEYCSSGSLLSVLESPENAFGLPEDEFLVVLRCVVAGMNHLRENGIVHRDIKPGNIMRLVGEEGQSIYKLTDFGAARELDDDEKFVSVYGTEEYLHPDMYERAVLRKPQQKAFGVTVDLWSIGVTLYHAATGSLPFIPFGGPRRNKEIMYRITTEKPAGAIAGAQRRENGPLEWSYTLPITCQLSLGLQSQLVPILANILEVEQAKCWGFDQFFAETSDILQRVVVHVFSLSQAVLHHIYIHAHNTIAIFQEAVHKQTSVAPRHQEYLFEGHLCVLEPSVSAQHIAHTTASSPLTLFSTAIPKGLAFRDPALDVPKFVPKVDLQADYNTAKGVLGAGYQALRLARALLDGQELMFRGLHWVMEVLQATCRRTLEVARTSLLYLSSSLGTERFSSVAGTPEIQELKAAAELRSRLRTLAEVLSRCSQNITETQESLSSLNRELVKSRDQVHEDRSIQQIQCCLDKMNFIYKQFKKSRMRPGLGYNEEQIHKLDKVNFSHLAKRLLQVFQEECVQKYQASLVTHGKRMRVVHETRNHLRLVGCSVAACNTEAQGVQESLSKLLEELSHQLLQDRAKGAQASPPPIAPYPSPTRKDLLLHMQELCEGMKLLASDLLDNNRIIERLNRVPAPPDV

Pim-1(h) = target: T8, Pim-1(h) (Homo sapiens, UniProt P11309); assay: Eurofins kinase panel; format: biochemical; settings: read-out: Inhibition rate (%)
T8 construct: purchased Eurofins (KinaseProfiler)

FGFR4 = target: T9, FGFR4 (Homo sapiens, UniProt P22455); assay: Kinase inhibition assay (ELISA); format: biochemical; settings: mean ± SD
T9 construct: purchased Eurofins (Fremont, United States)

PBMC (CSF-2) = assay: Macrophage survival (CCK-8); format: cell-based; settings: Homo sapiens, 168 h, 7 days
Protocol: Murine bone marrow-derived macrophages (BMDMs) and PBMCs were used for cell viability studies. BMDMs were harvested by flushing the tibias and femurs of 6- to 8-week-old C57BL/6 mice and depleting red blood cells (RBCs) by RBC lysis (Biogems). For BMDM survival, the cells were cultured for 7 days in RPMI 1640 containing 10% fetal bovine serum (FBS), 100 U/mL penicillin, 100 μg/mL streptomycin and 100 ng/mL mouse CSF-1 (or CSF-2) with or without the tested compounds. PBMCs were obtained from HemaCare and cultured for 7 days in RPMI 1640 containing 10% fetal bovine serum (FBS), 100 U/mL penicillin, 100 μg/mL streptomycin and 100 ng/mL human CSF-1 (or CSF-2) with or without the tested compounds. Cell viability was measured using the CCK-8 assay. For IL-4/IL-13-induced macrophage survival analysis, viable cells were counted by trypan blue exclusion.

[1] = tested on: ERK phosphorylation in NCI-H1581 tumors; assay: Pharmacodynamic study, intratumoral p-ERK; settings: 6 h after single oral dose of 12.5, 25 or 50 mg/kg

T2 sequence (O75676 whole entry): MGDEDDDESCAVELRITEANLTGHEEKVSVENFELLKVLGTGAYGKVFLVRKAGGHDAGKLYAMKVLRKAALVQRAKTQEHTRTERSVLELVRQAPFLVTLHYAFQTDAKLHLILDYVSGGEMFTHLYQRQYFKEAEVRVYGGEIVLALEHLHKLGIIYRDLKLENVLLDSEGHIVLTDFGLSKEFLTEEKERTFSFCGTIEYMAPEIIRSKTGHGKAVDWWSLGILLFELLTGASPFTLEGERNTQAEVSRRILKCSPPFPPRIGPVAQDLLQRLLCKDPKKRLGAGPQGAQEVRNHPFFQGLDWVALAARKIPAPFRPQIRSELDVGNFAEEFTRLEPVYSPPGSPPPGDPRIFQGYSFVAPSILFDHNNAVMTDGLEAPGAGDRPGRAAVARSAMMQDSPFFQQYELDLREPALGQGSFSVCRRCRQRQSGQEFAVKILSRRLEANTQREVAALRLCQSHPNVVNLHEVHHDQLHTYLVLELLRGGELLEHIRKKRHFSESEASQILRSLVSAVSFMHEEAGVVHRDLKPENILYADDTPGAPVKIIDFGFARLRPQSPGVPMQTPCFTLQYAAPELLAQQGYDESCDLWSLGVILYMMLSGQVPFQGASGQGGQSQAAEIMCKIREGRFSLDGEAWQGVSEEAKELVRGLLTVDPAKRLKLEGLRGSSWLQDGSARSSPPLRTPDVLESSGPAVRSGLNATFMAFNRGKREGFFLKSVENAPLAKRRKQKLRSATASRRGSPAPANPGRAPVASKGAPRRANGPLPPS
T8 sequence (P11309 whole entry): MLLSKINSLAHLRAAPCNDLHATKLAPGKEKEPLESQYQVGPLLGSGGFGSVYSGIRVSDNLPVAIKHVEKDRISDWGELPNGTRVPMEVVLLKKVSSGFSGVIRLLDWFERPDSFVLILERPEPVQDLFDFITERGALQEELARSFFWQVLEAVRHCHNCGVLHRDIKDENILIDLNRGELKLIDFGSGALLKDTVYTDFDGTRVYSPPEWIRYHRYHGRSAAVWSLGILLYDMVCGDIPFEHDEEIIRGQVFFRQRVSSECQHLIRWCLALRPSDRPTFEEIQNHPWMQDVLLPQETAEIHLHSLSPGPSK
T6 sequence (Q5TCY1 whole entry): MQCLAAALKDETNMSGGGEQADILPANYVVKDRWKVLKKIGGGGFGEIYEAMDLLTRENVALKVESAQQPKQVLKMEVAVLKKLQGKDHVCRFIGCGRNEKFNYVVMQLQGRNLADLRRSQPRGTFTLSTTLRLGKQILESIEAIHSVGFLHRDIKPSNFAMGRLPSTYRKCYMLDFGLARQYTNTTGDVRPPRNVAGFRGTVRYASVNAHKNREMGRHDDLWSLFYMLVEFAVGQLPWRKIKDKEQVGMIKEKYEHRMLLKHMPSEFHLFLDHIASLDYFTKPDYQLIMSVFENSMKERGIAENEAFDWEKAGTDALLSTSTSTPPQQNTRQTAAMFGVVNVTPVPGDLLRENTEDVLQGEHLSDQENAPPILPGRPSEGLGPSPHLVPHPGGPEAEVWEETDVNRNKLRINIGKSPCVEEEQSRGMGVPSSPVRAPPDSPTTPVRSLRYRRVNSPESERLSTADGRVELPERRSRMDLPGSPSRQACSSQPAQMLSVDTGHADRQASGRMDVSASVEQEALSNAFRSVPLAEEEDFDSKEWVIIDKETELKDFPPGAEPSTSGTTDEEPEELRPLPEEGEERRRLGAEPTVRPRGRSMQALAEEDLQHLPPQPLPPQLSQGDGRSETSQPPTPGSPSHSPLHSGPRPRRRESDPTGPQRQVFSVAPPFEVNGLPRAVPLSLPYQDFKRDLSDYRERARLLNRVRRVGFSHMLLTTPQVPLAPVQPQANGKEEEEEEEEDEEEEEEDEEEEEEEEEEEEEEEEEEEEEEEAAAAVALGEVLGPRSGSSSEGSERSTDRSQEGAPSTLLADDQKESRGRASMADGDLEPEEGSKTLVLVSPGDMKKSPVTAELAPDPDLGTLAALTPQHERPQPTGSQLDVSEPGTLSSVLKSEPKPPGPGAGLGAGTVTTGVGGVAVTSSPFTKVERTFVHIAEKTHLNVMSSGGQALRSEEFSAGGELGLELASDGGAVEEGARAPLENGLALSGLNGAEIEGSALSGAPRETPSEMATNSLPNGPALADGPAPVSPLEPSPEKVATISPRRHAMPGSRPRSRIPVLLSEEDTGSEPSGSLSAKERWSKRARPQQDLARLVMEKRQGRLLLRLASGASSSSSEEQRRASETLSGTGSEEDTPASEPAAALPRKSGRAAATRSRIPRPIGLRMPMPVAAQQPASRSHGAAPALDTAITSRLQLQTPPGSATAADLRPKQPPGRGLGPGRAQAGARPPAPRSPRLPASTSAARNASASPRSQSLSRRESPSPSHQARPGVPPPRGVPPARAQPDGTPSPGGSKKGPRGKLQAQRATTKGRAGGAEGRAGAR
T4 sequence (P08581 956-1390 Y1230D limits assumed): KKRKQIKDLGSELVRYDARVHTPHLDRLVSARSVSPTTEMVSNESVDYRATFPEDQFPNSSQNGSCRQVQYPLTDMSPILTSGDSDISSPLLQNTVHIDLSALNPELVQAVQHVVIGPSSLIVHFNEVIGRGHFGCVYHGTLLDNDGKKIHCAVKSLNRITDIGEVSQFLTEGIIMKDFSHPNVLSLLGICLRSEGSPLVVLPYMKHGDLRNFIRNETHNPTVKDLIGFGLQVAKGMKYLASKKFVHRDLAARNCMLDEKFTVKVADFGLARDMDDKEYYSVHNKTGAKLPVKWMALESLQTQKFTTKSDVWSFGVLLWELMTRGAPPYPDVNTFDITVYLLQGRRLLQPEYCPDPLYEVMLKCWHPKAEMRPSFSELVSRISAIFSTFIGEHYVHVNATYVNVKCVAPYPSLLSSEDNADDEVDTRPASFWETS
Sequence of FGFR1(V561M)(h) (P11362 22-822 V561M): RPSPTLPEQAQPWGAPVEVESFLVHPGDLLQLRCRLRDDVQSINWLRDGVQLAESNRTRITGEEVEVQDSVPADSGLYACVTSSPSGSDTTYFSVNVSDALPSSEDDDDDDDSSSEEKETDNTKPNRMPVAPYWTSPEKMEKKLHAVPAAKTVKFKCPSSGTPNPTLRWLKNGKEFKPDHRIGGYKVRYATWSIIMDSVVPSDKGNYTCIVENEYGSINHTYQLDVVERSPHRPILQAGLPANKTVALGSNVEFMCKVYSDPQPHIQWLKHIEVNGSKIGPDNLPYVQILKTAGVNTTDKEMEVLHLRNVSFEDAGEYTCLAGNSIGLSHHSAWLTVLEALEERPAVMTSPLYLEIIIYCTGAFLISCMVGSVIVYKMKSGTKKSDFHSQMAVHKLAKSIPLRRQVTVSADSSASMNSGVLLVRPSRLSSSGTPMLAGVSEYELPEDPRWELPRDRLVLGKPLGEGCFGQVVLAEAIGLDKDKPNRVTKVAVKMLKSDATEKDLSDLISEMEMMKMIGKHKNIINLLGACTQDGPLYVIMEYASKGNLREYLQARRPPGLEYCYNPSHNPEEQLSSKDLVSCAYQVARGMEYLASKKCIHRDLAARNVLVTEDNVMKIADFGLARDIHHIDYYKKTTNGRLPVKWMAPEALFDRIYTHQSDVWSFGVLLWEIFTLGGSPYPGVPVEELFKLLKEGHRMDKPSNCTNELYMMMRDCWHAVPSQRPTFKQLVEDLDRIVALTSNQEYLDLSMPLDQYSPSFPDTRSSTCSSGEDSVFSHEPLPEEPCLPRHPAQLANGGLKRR
T3 sequence (Q9UPE1 whole entry): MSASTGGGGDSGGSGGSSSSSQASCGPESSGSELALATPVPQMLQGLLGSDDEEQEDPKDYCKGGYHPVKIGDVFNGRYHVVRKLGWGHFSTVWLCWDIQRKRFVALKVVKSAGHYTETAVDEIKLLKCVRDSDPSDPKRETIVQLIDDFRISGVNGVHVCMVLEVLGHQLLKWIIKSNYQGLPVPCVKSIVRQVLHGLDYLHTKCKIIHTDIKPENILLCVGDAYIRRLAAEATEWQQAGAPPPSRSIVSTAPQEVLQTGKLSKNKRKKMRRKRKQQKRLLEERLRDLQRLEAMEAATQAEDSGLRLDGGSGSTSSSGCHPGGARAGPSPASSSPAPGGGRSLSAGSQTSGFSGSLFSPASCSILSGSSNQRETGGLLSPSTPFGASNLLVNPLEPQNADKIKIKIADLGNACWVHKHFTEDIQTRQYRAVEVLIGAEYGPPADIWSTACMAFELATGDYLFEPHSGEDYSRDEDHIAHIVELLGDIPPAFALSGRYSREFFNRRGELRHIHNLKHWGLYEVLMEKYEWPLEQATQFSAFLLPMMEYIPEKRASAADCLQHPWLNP
T9 sequence (P22455 22-802): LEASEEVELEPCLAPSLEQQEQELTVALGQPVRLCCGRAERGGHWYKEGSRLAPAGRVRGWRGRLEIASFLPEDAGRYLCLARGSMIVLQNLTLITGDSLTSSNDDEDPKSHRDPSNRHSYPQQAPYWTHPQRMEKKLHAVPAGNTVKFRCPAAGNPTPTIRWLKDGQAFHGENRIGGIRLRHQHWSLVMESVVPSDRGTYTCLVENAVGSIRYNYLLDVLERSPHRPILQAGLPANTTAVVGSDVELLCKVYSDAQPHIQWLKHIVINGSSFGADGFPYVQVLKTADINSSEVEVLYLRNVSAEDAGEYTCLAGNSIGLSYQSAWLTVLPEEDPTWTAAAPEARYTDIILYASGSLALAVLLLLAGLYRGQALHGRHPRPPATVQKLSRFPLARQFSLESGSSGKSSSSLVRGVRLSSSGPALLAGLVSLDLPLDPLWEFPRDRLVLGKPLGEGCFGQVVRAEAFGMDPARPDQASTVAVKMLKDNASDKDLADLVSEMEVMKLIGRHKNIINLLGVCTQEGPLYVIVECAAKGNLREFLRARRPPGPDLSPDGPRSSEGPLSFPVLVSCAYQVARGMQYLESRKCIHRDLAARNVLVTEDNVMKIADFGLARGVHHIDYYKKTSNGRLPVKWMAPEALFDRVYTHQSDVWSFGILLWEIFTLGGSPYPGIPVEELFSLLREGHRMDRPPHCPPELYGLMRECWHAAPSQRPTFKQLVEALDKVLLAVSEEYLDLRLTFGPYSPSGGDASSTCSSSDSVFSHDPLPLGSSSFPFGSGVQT

For `COc1cc(OC)c(Cl)c(-c2ccc3c(NC(=O)c4ccc(N5CCNC(C)(C)C5)cc4)n[nH]c3n2)c1Cl` [3D185], the inhibition at 0.01 µM (ALK(h); 10 nM) was -1%, the inhibition at 0.1 µM (ALK(h); 100 nM) was 35% and the inhibition at 1 µM (ALK(h); 1000 nM) was 82%. The inhibition at 0.01 µM (MSK2(h); 10 nM) was 10%, the inhibition at 0.1 µM (MSK2(h); 100 nM) was 25% and the inhibition at 1 µM (MSK2(h); 1000 nM) was 49%. For the same compound, the inhibition at 0.01 µM (MSSK1(h); 10 nM) was 3%, the inhibition at 0.1 µM (MSSK1(h); 100 nM) was 11% and the inhibition at 1 µM (MSSK1(h); 1000 nM) was 18%. The inhibition at 0.01 µM (Met(Y1248D)(h); 10 nM) was -12%, the inhibition at 0.1 µM (Met(Y1248D)(h); 100 nM) was -1% and the inhibition at 1 µM (Met(Y1248D)(h); 1000 nM) was 18%. It also gave an inhibition at 0.01 µM (TSSK3(h); 10 nM) of 14%, an inhibition at 0.1 µM (TSSK3(h); 100 nM) of 5% and an inhibition at 1 µM (TSSK3(h); 1000 nM) of 5%. It also gave an inhibition at 0.01 µM (TTBK1(h); 10 nM) of 2%, an inhibition at 0.1 µM (TTBK1(h); 100 nM) of -7% and an inhibition at 1 µM (TTBK1(h); 1000 nM) of -6%. It also gave an IC50 (FGFR1(V561M)(h); estimated from 372-kinase panel) of less than 0.01 µM, an inhibition at 0.01 µM (FGFR1(V561M)(h); read-out: Inhibition rate (%)) of 58% and an inhibition at 0.1 µM (FGFR1(V561M)(h); read-out: Inhibition rate (%)) of 94%. The inhibition at 1 µM (FGFR1(V561M)(h); read-out: Inhibition rate (%)) was 100%, the inhibition at 0.01 µM (IKKε(h); 10 nM) was -4% and the inhibition at 0.1 µM (IKKε(h); 100 nM) was 2%. For the same compound, the inhibition at 1 µM (IKKε(h); 1000 nM) was 5%, the inhibition at 0.01 µM (Pim-1(h); 10 nM) was -5% and the inhibition at 0.1 µM (Pim-1(h); 100 nM) was 13%. For the same compound, the inhibition at 1 µM (Pim-1(h); 1000 nM) was 9%, the IC50 (FGFR4) was 0.0514 µM and the IC50 (PBMC (CSF-2)) was greater than 1 µM. For the same compound, the “intratumoral ERK phosphorylation” value [1] was “nearly complete inhibition of ERK phosphorylation”.
